The numbers were not newly measured in patent US20230257337A1, “METHOD FOR PRODUCING POLYGYLCEROL ESTERS OF POLYCARBOXYLIC ACIDS ESTERIFIED WITH OXOBUTANOL” (IOI Oleo GmbH, priority 2020, published 2023), which cites them from elsewhere.

The conditions of the series: even if several grams are taken.

Take `CC(O)CC(=O)O` (stereo not shown) [3-hydroxybutyric acid]: the duration of ketosis result is given as “about three to four”.
